Measured values from ChEMBL document CHEMBL5150077, “Identification of TUL01101: A Novel Potent and Selective JAK1 Inhibitor for the Treatment of Rheumatoid Arthritis” (J Med Chem, 2022).

Legend:
[1] = target: Tyrosine-protein kinase JAK1 (Homo sapiens, UniProt P23458); assay: Inhibition of recombinant human JAK1 using MGEEPLYWSFPAKKK as substrate incubated for 40 mins in presence of Mg/ATP mixture by [gamma p33]-ATP based scintillation counting method
[2] = target: Tyrosine-protein kinase JAK2 (Homo sapiens, UniProt O60674); assay: Inhibition of recombinant human JAK2 using KTFCGTPEYLAPEVRREPRILSEEEQEMFRDFDYIADWC as substrate incubated for 40 mins in presence of Mg/ATP mixture by [gamma p33]-ATP based scintillation counting method
Sequence of Tyrosine-protein kinase JAK2 (O60674 whole entry): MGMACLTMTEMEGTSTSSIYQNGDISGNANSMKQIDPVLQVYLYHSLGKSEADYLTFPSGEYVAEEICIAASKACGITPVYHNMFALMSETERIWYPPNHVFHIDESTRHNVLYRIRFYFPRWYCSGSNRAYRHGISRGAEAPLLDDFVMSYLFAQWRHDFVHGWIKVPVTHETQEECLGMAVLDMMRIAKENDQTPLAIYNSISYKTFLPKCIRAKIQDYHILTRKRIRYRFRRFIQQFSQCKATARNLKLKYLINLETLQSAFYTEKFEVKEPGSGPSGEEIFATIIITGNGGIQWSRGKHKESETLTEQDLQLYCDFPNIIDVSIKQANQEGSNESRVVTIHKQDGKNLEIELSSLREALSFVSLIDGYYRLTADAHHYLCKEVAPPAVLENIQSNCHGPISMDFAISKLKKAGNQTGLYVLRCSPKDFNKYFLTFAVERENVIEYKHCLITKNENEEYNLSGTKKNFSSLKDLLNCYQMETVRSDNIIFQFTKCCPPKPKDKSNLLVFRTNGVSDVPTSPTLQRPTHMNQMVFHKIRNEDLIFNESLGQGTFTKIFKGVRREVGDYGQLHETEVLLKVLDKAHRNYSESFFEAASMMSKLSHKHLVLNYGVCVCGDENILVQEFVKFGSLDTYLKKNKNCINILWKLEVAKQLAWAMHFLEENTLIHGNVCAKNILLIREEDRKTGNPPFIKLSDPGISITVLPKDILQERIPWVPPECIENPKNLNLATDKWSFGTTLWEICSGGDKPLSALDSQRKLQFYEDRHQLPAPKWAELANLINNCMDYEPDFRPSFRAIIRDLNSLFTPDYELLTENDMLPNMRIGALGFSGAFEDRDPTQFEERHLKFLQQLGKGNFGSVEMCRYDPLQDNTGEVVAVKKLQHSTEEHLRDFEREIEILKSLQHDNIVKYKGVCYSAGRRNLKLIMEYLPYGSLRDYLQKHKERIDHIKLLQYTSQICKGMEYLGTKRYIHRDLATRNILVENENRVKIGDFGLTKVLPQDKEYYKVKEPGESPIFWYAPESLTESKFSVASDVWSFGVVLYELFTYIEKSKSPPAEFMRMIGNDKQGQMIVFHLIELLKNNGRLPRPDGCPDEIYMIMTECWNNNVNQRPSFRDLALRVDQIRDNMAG

[3] = target: Non-receptor tyrosine-protein kinase TYK2 (Homo sapiens, UniProt P29597); assay: Inhibition of recombinant human TYK2 using GGMEDIYFEFMGGKKK as substrate incubated for 40 mins in presence of Mg/ATP mixture by [gamma p33]-ATP based scintillation counting method
Sequence of Non-receptor tyrosine-protein kinase TYK2 (P29597 whole entry): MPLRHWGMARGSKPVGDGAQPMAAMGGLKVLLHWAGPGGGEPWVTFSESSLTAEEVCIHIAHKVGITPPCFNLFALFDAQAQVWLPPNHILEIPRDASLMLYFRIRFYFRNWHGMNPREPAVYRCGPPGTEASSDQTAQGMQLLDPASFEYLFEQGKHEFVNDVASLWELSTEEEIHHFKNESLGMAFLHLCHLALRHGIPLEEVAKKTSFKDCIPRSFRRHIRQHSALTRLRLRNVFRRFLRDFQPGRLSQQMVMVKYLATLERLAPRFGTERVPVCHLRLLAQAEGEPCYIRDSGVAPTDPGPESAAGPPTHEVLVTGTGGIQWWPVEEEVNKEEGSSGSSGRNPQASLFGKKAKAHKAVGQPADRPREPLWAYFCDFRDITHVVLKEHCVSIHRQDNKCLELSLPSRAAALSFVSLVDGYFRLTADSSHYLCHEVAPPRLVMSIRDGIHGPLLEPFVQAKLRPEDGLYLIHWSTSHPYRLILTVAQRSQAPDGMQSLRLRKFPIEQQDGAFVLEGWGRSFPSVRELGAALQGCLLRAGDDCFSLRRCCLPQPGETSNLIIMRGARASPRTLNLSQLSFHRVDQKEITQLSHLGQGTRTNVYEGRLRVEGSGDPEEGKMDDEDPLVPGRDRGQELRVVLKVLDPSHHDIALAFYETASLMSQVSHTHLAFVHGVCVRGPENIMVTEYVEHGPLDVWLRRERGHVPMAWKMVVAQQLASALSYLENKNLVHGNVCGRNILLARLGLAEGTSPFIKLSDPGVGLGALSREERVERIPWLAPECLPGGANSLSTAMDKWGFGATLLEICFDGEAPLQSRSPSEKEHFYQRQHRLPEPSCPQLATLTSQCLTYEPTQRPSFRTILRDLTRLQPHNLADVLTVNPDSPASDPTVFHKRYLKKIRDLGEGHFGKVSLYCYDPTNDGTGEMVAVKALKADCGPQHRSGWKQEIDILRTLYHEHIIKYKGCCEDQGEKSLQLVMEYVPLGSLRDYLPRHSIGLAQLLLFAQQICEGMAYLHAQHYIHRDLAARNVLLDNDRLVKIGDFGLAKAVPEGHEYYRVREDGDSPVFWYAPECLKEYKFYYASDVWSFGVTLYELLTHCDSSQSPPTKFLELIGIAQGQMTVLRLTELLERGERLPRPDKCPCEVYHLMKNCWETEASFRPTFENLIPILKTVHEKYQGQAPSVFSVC

Homo sapiens [4] = organism: Homo sapiens; assay: Selectivity index, ratio of IC50 for inhibition of recombinant human JAK2 to IC50 for inhibition of recombinant human JAK1
Homo sapiens [5] = organism: Homo sapiens; assay: Selectivity index, ratio of IC50 for inhibition of recombinant human TYK2 to IC50 for inhibition of recombinant human JAK1
[6] = Apparent permeability across apical to basolateral side in human Caco-2 cells at 10 uM measured after 120 mins by LC-MS/MS analysis; details: Caco-2
[7] = Apparent permeability across basolateral to apical side in human Caco-2 cells at 10 uM measured after 120 mins by LC-MS/MS analysis
[8] = Plasma protein binding in human assessed as unbound fraction at 2 uM incubated for 4 hrs by LC/MS/MS based balanced dialysis method
[9] = Plasma protein binding in mouse assessed as unbound fraction at 2 uM incubated for 4 hrs by LC/MS/MS based balanced dialysis method
[10] = Microsomal stability in mouse liver microsomes assessed as intrinsic clearance at 1 uM incubated for 60 mins in presence of NADPH regenerating system by LC-MS/MS analysis; format: ADME, Microsome; details: read-out: CLH
[11] = Microsomal stability in rat liver microsomes assessed as intrinsic clearance at 1 uM incubated for 60 mins in presence of NADPH regenerating system by LC-MS/MS analysis; format: ADME, Microsome; details: read-out: CLH
[12] = Microsomal stability in human liver microsomes assessed as intrinsic clearance at 1 uM incubated for 60 mins in presence of NADPH regenerating system by LC-MS/MS analysis; format: ADME, Microsome; details: read-out: CLH
[13] = Metabolic stability in rat hepatocytes assessed as intrinsic clearance at 1 uM incubated for 90 mins by LC/MS/MS analysis; format: ADME, cell-based, Hepatocyte
[14] = Metabolic stability in human hepatocytes assessed as intrinsic clearance at 1 uM incubated for 90 mins by LC/MS/MS analysis; format: ADME, cell-based, Hepatocyte
Cytochrome P450 1A2 = target: T1, Cytochrome P450 1A2 (Homo sapiens, UniProt P05177); assay: Inhibition of CYP1A2 in human liver microsomes incubated in presence NADPH by LC-MS/MS analysis
T1 sequence (P05177 whole entry): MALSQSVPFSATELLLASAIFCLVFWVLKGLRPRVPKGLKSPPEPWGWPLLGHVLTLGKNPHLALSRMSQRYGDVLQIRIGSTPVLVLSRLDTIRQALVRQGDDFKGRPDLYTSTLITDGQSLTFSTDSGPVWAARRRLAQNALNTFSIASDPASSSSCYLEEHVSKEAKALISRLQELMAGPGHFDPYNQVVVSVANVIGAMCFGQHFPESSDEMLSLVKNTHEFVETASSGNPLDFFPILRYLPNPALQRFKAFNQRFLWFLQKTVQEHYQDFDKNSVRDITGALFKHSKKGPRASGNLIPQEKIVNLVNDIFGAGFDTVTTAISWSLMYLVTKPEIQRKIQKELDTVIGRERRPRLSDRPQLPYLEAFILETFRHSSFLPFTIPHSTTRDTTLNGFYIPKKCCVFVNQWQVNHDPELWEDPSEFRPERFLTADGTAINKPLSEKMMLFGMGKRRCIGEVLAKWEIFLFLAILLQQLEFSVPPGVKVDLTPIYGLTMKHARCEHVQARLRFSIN

Cytochrome P450 2B6 = target: T2, Cytochrome P450 2B6 (Homo sapiens, UniProt P20813); assay: Inhibition of CYP2B6 in human liver microsomes incubated in presence NADPH by LC-MS/MS analysis
T2 sequence (P20813 whole entry): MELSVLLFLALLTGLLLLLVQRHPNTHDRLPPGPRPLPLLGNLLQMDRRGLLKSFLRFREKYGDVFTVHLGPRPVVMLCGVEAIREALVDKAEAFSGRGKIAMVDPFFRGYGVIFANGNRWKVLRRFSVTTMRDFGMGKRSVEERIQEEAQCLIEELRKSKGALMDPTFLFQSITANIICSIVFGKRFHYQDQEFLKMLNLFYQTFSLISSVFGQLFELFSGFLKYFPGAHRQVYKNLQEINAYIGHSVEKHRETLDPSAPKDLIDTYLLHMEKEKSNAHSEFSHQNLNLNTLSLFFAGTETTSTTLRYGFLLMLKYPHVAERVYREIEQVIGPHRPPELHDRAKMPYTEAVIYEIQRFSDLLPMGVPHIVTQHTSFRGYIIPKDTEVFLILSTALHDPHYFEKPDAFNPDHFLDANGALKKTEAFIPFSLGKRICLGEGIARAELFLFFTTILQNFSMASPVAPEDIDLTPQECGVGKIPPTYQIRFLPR

Cytochrome P450 2C8 = target: T3, Cytochrome P450 2C8 (Homo sapiens, UniProt P10632); assay: Inhibition of CYP2C8 in human liver microsomes incubated in presence NADPH by LC-MS/MS analysis
T3 sequence (P10632 whole entry): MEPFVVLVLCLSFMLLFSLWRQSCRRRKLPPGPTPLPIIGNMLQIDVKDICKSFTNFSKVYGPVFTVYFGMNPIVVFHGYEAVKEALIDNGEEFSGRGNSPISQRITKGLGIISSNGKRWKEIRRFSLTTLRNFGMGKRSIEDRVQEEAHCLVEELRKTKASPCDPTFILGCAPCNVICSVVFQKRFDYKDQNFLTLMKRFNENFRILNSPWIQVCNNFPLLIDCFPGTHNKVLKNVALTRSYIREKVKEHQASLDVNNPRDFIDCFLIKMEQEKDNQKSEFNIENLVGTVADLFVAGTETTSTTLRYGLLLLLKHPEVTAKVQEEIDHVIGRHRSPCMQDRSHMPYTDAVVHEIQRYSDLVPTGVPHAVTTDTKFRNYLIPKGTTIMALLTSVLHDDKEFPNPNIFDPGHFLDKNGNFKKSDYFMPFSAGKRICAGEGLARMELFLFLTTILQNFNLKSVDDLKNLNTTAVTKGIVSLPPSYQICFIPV

Cytochrome P450 2C19 = Cytochrome P450 2C19 (Homo sapiens, UniProt P33261); assay: Inhibition of CYP2C19 in human liver microsomes incubated in presence NADPH by LC-MS/MS analysis
Sequence of Cytochrome P450 2C19 (P33261 whole entry): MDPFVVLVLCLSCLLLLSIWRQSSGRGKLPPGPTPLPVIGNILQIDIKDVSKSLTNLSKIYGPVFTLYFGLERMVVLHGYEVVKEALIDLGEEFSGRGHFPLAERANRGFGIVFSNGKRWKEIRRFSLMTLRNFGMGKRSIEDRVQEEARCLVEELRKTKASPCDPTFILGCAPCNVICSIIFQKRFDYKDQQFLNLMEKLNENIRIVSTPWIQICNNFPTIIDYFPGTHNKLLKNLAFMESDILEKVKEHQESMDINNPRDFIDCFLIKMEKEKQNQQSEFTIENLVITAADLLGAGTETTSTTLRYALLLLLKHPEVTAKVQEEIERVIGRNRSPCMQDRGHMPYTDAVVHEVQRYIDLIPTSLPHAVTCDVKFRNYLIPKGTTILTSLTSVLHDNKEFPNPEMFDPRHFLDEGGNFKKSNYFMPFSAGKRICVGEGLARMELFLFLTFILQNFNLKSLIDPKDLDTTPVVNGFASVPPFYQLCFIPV

Cytochrome P450 2D6 = Cytochrome P450 2D6 (Homo sapiens, UniProt P10635); assay: Inhibition of CYP2D6 in human liver microsomes incubated in presence NADPH by LC-MS/MS analysis
Sequence of Cytochrome P450 2D6 (P10635 whole entry): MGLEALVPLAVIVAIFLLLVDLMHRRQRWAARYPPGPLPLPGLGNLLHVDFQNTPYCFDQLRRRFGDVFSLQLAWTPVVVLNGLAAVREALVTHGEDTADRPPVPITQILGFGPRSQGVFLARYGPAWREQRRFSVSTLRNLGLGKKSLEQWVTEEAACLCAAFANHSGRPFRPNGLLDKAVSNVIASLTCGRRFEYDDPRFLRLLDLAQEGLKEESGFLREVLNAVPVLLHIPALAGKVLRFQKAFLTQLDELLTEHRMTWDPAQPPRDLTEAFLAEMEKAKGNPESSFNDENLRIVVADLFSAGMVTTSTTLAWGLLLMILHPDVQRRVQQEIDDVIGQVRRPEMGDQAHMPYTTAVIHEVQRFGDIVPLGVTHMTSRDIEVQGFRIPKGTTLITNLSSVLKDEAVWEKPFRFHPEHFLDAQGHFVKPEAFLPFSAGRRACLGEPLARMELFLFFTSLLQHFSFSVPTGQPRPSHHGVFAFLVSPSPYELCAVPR

[15] = Clearance in C57BL/6 mouse at 2 mg/kg, iv measured for 24 hrs by LC/MS/MS analysis; format: ADME, organism-based; details: in vivo

Sequence of Tyrosine-protein kinase JAK1 (P23458 whole entry): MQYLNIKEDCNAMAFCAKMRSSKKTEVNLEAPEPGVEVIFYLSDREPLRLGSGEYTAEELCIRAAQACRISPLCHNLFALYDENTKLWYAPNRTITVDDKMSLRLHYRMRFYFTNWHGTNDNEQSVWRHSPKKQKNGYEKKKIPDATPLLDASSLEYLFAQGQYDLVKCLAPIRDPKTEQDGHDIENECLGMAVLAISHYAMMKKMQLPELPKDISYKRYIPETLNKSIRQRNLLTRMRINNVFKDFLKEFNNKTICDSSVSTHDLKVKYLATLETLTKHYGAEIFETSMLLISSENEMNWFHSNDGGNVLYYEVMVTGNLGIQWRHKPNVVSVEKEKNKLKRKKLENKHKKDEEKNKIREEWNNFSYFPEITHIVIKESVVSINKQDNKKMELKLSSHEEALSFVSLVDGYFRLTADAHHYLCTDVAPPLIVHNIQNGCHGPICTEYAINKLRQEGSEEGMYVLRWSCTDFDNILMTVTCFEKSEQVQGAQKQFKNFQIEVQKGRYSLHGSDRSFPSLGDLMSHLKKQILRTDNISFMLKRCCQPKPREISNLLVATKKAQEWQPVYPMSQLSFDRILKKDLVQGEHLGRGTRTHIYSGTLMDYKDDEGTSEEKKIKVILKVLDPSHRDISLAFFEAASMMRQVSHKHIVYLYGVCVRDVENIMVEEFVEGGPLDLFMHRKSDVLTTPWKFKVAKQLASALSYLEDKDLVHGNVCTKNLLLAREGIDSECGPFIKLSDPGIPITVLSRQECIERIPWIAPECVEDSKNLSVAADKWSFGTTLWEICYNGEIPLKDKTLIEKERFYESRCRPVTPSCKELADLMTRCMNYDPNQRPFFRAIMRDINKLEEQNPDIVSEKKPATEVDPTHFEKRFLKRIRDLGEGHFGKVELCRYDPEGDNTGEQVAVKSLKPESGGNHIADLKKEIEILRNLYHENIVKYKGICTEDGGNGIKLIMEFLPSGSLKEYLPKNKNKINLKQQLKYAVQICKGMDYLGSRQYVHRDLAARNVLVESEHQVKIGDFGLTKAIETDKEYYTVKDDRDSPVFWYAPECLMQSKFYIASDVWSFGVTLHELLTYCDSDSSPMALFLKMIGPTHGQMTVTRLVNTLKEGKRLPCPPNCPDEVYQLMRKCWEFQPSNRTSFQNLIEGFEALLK

O=C(Nc1nc2cccc(C3CCC4(CC3)CCN(C(=O)[C@@H]3CC3(F)F)C4)n2n1)C1CC1 (some centres not stated)
IC50 [1]: 0.031 µM
IC50 [2]: 0.324 µM
IC50 [3]: 0.067 µM
Ratio IC50 (Homo sapiens [4]): 10.5
Ratio IC50 (Homo sapiens [5]): 2.2
Papp A→B at 2 h, 10 µM [6]: 1.6 ×10⁻⁶ cm/s
Papp B→A at 2 h, 10 µM [7]: 31.2 ×10⁻⁶ cm/s
fraction unbound at 4 h, 2 µM [8]: 0.088
fraction unbound at 4 h, 2 µM [9]: 0.112
microsomal CLint at 1 µM [10]: 46.5 µL/min/mg
microsomal CLint at 1 µM [11]: 15.7 µL/min/mg
microsomal CLint at 1 µM [12]: 11.3 µL/min/mg
CLH [13]: 25.6 µL/min/mg
CLH [14]: < 6.4 µL/min/mg
IC50 (Cytochrome P450 1A2): > 100 µM
IC50 (Cytochrome P450 2B6): > 100 µM
IC50 (Cytochrome P450 2C8): > 100 µM
IC50 (Cytochrome P450 2C19): 64.3 µM
IC50 (Cytochrome P450 2D6): > 100 µM

O=C(Nc1nc2cccc(C3CCC4(CC3)CN(C(=O)[C@@H]3CC3(F)F)C4)n2n1)C1CC1
fraction unbound at 4 h, 2 µM [8]: 0.176
fraction unbound at 4 h, 2 µM [9]: 0.259
microsomal CLint at 1 µM [10]: < 9.6 µL/min/mg
microsomal CLint at 1 µM [11]: < 9.6 µL/min/mg
microsomal CLint at 1 µM [12]: < 9.6 µL/min/mg
CLH [13]: < 6.4 µL/min/mg
CLH [14]: < 6.4 µL/min/mg
clearance [15]: 22.1 mL/min/kg

O=C(Nc1nc2cccc(C3CCC4(CC3)CCN(C(=O)[C@@H]3CC3(F)F)CC4)n2n1)C1CC1
IC50 [1]: 0.003 µM
IC50 [2]: 0.04 µM
IC50 [3]: 0.026 µM
Ratio IC50 (Homo sapiens [4]): 13.3
Ratio IC50 (Homo sapiens [5]): 8.7
Papp A→B at 2 h, 10 µM [6]: 4.29 ×10⁻⁶ cm/s
Papp B→A at 2 h, 10 µM [7]: 29.1 ×10⁻⁶ cm/s
fraction unbound at 4 h, 2 µM [8]: 0.056
fraction unbound at 4 h, 2 µM [9]: 0.057
microsomal CLint at 1 µM [10]: 20.8 µL/min/mg
microsomal CLint at 1 µM [11]: < 9.6 µL/min/mg
microsomal CLint at 1 µM [12]: < 9.6 µL/min/mg
CLH [13]: < 6.4 µL/min/mg
CLH [14]: < 6.4 µL/min/mg
IC50 (Cytochrome P450 1A2): > 100 µM
IC50 (Cytochrome P450 2B6): > 100 µM
IC50 (Cytochrome P450 2C8): > 100 µM
IC50 (Cytochrome P450 2C19): 4.93 µM
IC50 (Cytochrome P450 2D6): > 100 µM
clearance [15]: 14.9 mL/min/kg

O=C(Nc1nc2cccc([C@H]3CC[C@@H](NC(=O)[C@@H]4CC4(F)F)CC3)n2n1)C1CC1
IC50 [1]: 0.002 µM
IC50 [3]: 0.024 µM
Papp A→B at 2 h, 10 µM [6]: 2.78 ×10⁻⁶ cm/s
Papp B→A at 2 h, 10 µM [7]: 29.2 ×10⁻⁶ cm/s
fraction unbound at 4 h, 2 µM [8]: 0.085
fraction unbound at 4 h, 2 µM [9]: 0.148
microsomal CLint at 1 µM [10]: 24.2 µL/min/mg
microsomal CLint at 1 µM [11]: 16.9 µL/min/mg
microsomal CLint at 1 µM [12]: < 9.6 µL/min/mg
CLH [13]: < 10.8 µL/min/mg
CLH [14]: < 6.4 µL/min/mg
IC50 (Cytochrome P450 1A2): 8.21 µM
IC50 (Cytochrome P450 2B6): > 100 µM
IC50 (Cytochrome P450 2C8): > 100 µM
IC50 (Cytochrome P450 2C19): 75 µM
IC50 (Cytochrome P450 2D6): > 100 µM
clearance [15]: 9.58 mL/min/kg
